Measurements as given in patent US6207389A, “Methods of controlling T lymphocyte mediated immune responses” (HRC Research and Development Limited Partnership, priority 1995, dated 2001).

Columns and labels:
[1] = system: NOD mice lymph node cells; experiment: Immunization and T cell proliferation assay, NOD mice (Example 11); format: in vivo, mouse; details: 50 μg sc in complete Freund's adjuvant, recall with 1 μg antigen in vitro
Protocol: (§1) Recombinant truncated p69 was prepared by expression of a portion of the cDNA of IS4. The cDNA was cut a few nucleotides downstream of the 3' terminal of exon 3 and was subcloned into the PET™ expression system according to the manufacturer's recommendations (Novagen Inc., Madison, Wis.). The truncated protein contains 100 amino acids and is essentially identical with the murine molecule.
(§2) Antigens were injected subcutaneously in complete Freunds' adjuvant, and local lymph nodes and blood samples were collected 10 days later. Triplicate cultures of 2×10^5 lymph node cells were incubated for 5 days in serum-free HGM-af Medium™ (Promo Cell, Heidelberg, Germany) in the presence of 1 μg of protein or synthetic peptide as recall antigen. Six hours before harvesting, 1 μCi ^3 H-thymidine (6.7 Ci/mmol) was added to the wells, and isotope incorporation was analysed by liquid scintillation counting. Values are expressed as mean counts per minute ± standard deviation (mean cpm ± SD).
(§3) Young male NOD mice (H2^G7, IE^-/-) received a single immunization with truncated p69 (as encoded by IS4 cDNA) in complete adjuvant, and antibody and T cell proliferative responses were measured 8-10 days later. MHC disparate C57/B6 (H2^b, IE^-/-) and SJL (H2^s, IE^-/-) mice served as non-diabetes prone controls (FIG. 31).

female NOD mice [2] = experiment: Circulating IgG anti-BSA antibodies by particle concentration fluoroimmunoassay (Example 7); format: in vivo, mouse; details: same treatment; over 34 weeks
Protocol: (§4) A control group (13 mice) was injected with incomplete Freund's Adjuvant only and a further control group (13 mice) was untreated. A booster injection of the same treatment material was given intraperitoneally one week later.
Circulating IgG anti-BSA antibodies were measured over the 34 weeks of the experiment, using the particle concentration fluoroimmunoassay described by the inventors in International Patent Application No. PCT/CA93/000304.

[3] = system: PBMC from a child with recent onset diabetes; experiment: Proliferative response, patient cells (Example 6); format: cell-based, human; details: 1 μg antigen per culture, 7 days
Protocol: Replicate cultures of PBMC from a child with recent onset diabetes and a healthy control subject were stimulated with P2267, Tep69, Herpes simplex antigen or a mixture of P2267 and Tep69 (1 μg antigen per culture) as described in Example 3. After 2 days of incubation, one patient cell culture and one healthy control culture were harvested for RNA extraction and measurement of IL2 receptor transcripts by RT-PCR, as described by Cheung et al., (1991), J. Biol. Chem., v. 266, pp. 8667-8670. PCR was used to amplify a 739 bp fragment of IL2R coding sequence from patient and control and also a 430 bp region in the human β-actin gene of patient.
Remaining cultures were incubated for a further 5 days and used to determine proliferative responses as described in Example 3.

female NOD mice [4] = experiment: IDDM development after immunotherapy with BSA or ABBOS in adjuvant (Example 7); format: in vivo, mouse; details: 150 μg BSA or 50 μg ABBOS in incomplete Freund's Adjuvant sc at 5 weeks, ip booster one week later; up to 9 months
Protocol: as §4
IDDM development was followed by testing for urine glucose and when urine glucose was detected, blood glucose was then determined.

[5] = system: PBMC from children with recent onset diabetes; experiment: T cell proliferation assay with BSA and rec-p69, patients (Example 3); format: cell-based, human; details: 1 μg antigen
Protocol: (§5) Cultures containing 5×10^4 cells were incubated for 7 days at 37° C. in serum-free HL-1 medium (Ventrex, Portland, Me.) containing 1 μg antigen per well for test samples.
(§6) Control cultures were treated with 1 μg human, chick or horse albumin or an equivalent volume of control recombinant antigen prepared from lysates of E. coli carrying wild type plasmid.
(§7) After an overnight pulse of 1 μci ^3 H thymidine, cultures were harvested and submitted to liquid scintillation counting. Proliferation was expressed as cpm ^3 HTdR×10^-3.
(§8) A parallel set of cell cultures was incubated with the same test antigens or control agents in the presence of 10 U human IL2.

NOD mice = experiment: Serum antibodies to BSA and p69 by fluoroimmunoassay, NOD mice (Example 11); format: in vivo, mouse; details: 50 μg sc in complete Freund's adjuvant
Protocol: (§9) Male non-obese diabetic mice (NOD, 6-7 weeks old) were immunized with 50 μg BSA, ABBOS-short peptide ([…]), recombinant truncated p69 or p69 T cell epitope peptide `Tep69` ([…]) (10). Recombinant truncated p69 was prepared by expression of a portion of the cDNA of IS4. The cDNA was cut a few nucleotides downstream of the 3' terminal of exon 3 and was subcloned into the PET™ expression system according to the manufacturer's recommendations (Novagen Inc., Madison, Wis.).
(§10) Antigens were injected subcutaneously in complete Freunds' adjuvant, and local lymph nodes and blood samples were collected 10 days later. […] Six hours before harvesting, 1 μCi ^3 H-thymidine (6.7 Ci/mmol) was added to the wells, and isotope incorporation was analysed by liquid scintillation counting. Values are expressed as mean counts per minute ± standard deviation (mean cpm ± SD).
(§11) Serum antibodies to BSA and p69 were measured by particle concentration fluoroimmunoassay, as described (11). […] Bound fluorescence was read by an automated ScreenMachine™ instrument (IDEXX, Portland, Me.). Data are expressed in kilofluorescence units relative to a standard mouse serum analyzed in parallel within each assay plate.
(§12) Young male NOD mice (H2^G7, IE^-/-) received a single immunization with truncated p69 (as encoded by IS4 cDNA) in complete adjuvant, and antibody and T cell proliferative responses were measured 8-10 days later. […]

C57/B6 and SJL mice = experiment: Serum antibodies to BSA and p69 by fluoroimmunoassay, control mice (Example 11); format: in vivo, mouse; details: 50 μg sc in complete Freund's adjuvant
Protocol: as §9, §10, §11, §12

[6] = system: PBMC cultures from patients with recent onset diabetes; experiment: Proliferative responses to antigen mixtures (Example 5); format: cell-based, human; details: patient PBMC, no IL2 (FIG. 9A)
Protocol: Proliferation assays were conducted as described in Example 3. Control cultures were treated with 1 μg horse albumin or with the peptides P2240, P2269, P2270 or H1029. Results with control antigens were similar and data were pooled.
Responses were expressed as mean of triplicate cultures; variations were <12%. Responses in the absence of IL2 are shown in FIG. 9, Panel A. Parallel cultures were treated with the same antigens and antigen mixtures in the presence of 10U IL2.

[7] = system: PBMC from healthy subjects; experiment: T cell proliferation assay with BSA and rec-p69, healthy subjects (Example 3); format: cell-based, human; details: with or without IL2
Protocol: as §5, §6, §7, §8

[8] = system: PBMC from children with recent onset diabetes; experiment: Proliferative response of PBMC to peptide fragments in the presence of IL2 (Example 4); format: cell-based, human; details: patient PBMC
Protocol: as §5, §7
Control cultures were stimulated with 1 μg ovalbumin or horse or human albumin. […] A 4 h. pulse with 1 μCi ^3 H thymidine was used.
Each synthetic peptide was tested with PBMC from at least 3 children with recent onset diabetes. Stimulation Index=^3 H Thymidine Incorporation in peptide-stimulated culture in cpm divided by Thymidine incorporation in control culture in cpm.
Peptides corresponding to stretches of the amino acid sequence of human p69 were also synthesised and the proliferative response to patient PBMC cultures to these peptides were similarly tested, in the presence of IL2.

[9] = system: C57/B6 and SJL mice lymph node cells; experiment: Immunization and T cell proliferation assay, non-diabetes prone control mice (Example 11); format: in vivo, mouse; details: 50 μg sc in complete Freund's adjuvant
Protocol: as §1, §2, §3

Substance: bovine serum albumin [BSA]
- T cell proliferative response after immunisation [1]: vigorous B- and T cell responses
- anti-BSA antibody response (female NOD mice [2]): massive antibody response
- proliferation of patient cells [3]: 6740±480 cpm
- development of IDDM (female NOD mice [4]): complete prevention of IDDM
- proliferative response of patient samples ([5]; absence of IL2): marked proliferative response
- proliferative response of patient samples ([5]; presence of 10 U IL2): increased response
- antibody response after immunisation (anti-p69 or anti-BSA) (NOD mice): vigorous B- and T cell responses
- antibody response after immunisation (anti-p69 or anti-BSA) (C57/B6 and SJL mice): vigorous B- and T cell responses
- PBMC proliferation in the absence of IL2 [6]: gave PBMC proliferation in the absence of IL2
- proliferative response of samples from healthy subjects [7]: no significant proliferative response
- PBMC proliferative response [8]: significantly higher than responses to control antigens or peptides
- T cell proliferative response after immunisation [9]: vigorous B- and T cell responses
